{
  "source": "patent US20220305003A1",
  "about": "“METHODS OF TREATING CANCER WITH AN INHIBITOR OF ZNF827” (CHILDREN'S MEDICAL RESEARCH INSTITUTE, priority 2019, published 2022)",
  "data": [
    {"system": "ATR-CHK1 pathway", "assay": "Western blot of ATR downstream effectors (p-CHK1 S345, p-RPA2 S33, pCHK2)", "type": "cell-based", "details": "U-2 OS; agent alone (topotecan 2 μg/mL 24 hours, aphidicolin 1 μM 20 hours, or siRNA knockdown in unchallenged cells)", "experimental": "Protein was extracted from 10^6 cells per sample by vigorous pipetting and incubation at room temperature for 30 minutes in 100 μL of EDTA-free 4× LDS buffer (106 mM Tris-Cl, 141 mM Tris-Base, 40% Glycerol, 2% LDS, 0.075% SERVA Blue G50) supplemented with 2.5% Benzonase® nuclease 25 U/μL (Novagen, Merck Millipore) and 2% beta-mercaptoethanol (Sigma). Following protein extraction, all samples were denatured at 90° C. for 15 minutes before resolving on NuPAGE® Novex® 4-12% Bis-Tris Mini Gels (Invitrogen) with 1×10^5 cells (10 μL) loaded per lane in NuPAGE® MES SDS running buffer (Invitrogen) at 200 V for 50 minutes. Gels were transferred onto a PVDF membrane (Immobilon-P, Millipore) in transfer buffer (190 mM glycine, 25 mM Tris and 10% methanol) at 100 V for 60 minutes. Membranes were stained with Ponceau-S for 30 minutes, de-stained then blocked for 1 hour at room temperature in 5% skim milk dissolved in PBS with 0.1% Tween-20 (PBST) or TBS with 0.1% Tween-20 (TBST) for phosphorylated proteins. Membranes were cut into appropriate segments based on the size markers, with each segment incubated with antibodies for proteins of interest diluted in 0.5% skim milk in PBST/TBST or 5% BSA overnight at 4° C. (Refer to Table 4 for the list of antibodies). Blots were then washed for 3×5 minutes in PBST/TBST followed by incubation for 1 hour at room temperature with appropriate secondary antibodies (See Table 5) diluted 1:5000 in 0.5% skim milk or 5% BSA in PBST/TBST. Blots were washed for 3×5 minutes in PBST/TBST before incubation with SuperSignal West Pico Chemiluminescent Substrate (ThermoFisher Scientific) for 5 minutes at room temperature. Blots were then exposed to a Luminescent Image Analyser (LAS-4000, Fujifilm).\nTo investigate the precise function of ZNF827 in the ATR pathway, the effect of ZNF827 depletion on the downstream effectors of ATR was examined. To activate ATR, U-2 OS cells were treated with DNA damage and replication stress inducing agents topotecan 2 μg/mL for 24 hours or aphidicolin 1 μM for 20 hours. […] Phosphorylation of CHK2 was not affected by ZNF827 depletion, further supporting that the role of ZNF827 in DNA damage and repair is independent of ATM (FIG. 6d).", "values": [
      {"molecule": "C[C@@]1(CO)[C@H](O)CC[C@@]2(C)[C@H]1CC[C@H]1C[C@@H]3C[C@@]12CC[C@]3(O)CO", "note": "[aphidicolin]", "phosphorylation of CHK1 S345": "became phosphorylated at S345"}
    ]},
    {"system": "panel of 660 cell lines", "assay": "Drug sensitivity (Sanger GDSC IC50) versus ZNF827 gene expression", "type": "cell-based", "details": "natural log of the IC50 from Sanger GDSC v17.3; low log2(TPM) <1 vs normal; Nemenyi test, adjusted p-value<0.05", "experimental": "ZNF827 gene expression for the 660 cell lines was plotted on a histogram and grouped by gene expression level, represented as log2(TPM), into “low” (<1), “normal” (>1, <5) and “high” (>5). […] The Nemenyi statistical test was used to test for significant differences between “low” and “normal” ZNF827 expression groups for drug sensitivity for each compound. P-values were then corrected for multiple testing using FDR correction. […] All statistical analysis was performed in R (version 3.6.0), using the “stats” (version 3.6.0) and “PMCMR” (version 4.3) libraries.", "values": [
      {"molecule": "CC1=C(/C=C/C(C)=C/C=C/C(C)=C/C(=O)O)C(C)(C)CCC1", "note": "[Tretinoin]", "drug sensitivity in cell lines with low ZNF827 compared to cell lines with normal ZNF827 expression": "Increased sensitivity"},
      {"molecule": "CCCC(=O)OCc1ccc(OC(=O)/C=C(C)/C=C/C=C(C)/C=C/C2=C(C)CCCC2(C)C)cc1", "note": "[VNLG-124]", "drug sensitivity in cell lines with low ZNF827 compared to cell lines with normal ZNF827 expression": "Increased sensitivity"},
      {"molecule": "NC(=O)c1ccc(N(C(N)=O)c2c(F)cccc2F)nc1-c1ccc(F)cc1F", "note": "[VX-702]", "drug sensitivity in cell lines with low ZNF827 compared to cell lines with normal ZNF827 expression": "Increased sensitivity"},
      {"molecule": "O=C(CCCCCCC(=O)Nc1ccccc1)NO", "note": "[Vorinostat]", "drug sensitivity in cell lines with low ZNF827 compared to cell lines with normal ZNF827 expression": "Increased sensitivity"},
      {"molecule": "KIN001-236", "drug sensitivity in cell lines with low ZNF827 compared to cell lines with normal ZNF827 expression": "Increased sensitivity"},
      {"molecule": "KIN001-260", "drug sensitivity in cell lines with low ZNF827 compared to cell lines with normal ZNF827 expression": "Increased sensitivity"},
      {"molecule": "THZ-2-49", "drug sensitivity in cell lines with low ZNF827 compared to cell lines with normal ZNF827 expression": "Increased sensitivity"},
      {"molecule": "TL-1-85", "drug sensitivity in cell lines with low ZNF827 compared to cell lines with normal ZNF827 expression": "Increased sensitivity"},
      {"molecule": "TL-2-105", "drug sensitivity in cell lines with low ZNF827 compared to cell lines with normal ZNF827 expression": "Increased sensitivity"}
    ]}
  ]
}
